Test results reported in US20220268782A1, “METHODS FOR PREDICTING AND TREATING CARDIAC DYSFUNCTION” (INSERM (INSTITUT NATIONAL DE LA SANTÉ EAT DE LA RECHERCHE …, priority 2019, published 2022).

Assays:
C2C12 myoblasts = assay: PA-induced senescence in C2C12 myoblasts (immunoblot of senescence markers, EdU incorporation); format: cell-based; details: C2C12 cells
Protocol: (§1) Cells were washed briefly with ice-cold 1×PBS, scraped in 400 μL T-PER lysis buffer (ThermoFisher) supplemented with 0.1 mM phenylmethylsulphonyl fluoride (PMSF) and protease/phosphatase inhibitor cocktail tablet (ThermoFisher). Pulverised tissue samples (20-30 mg) were lysed in the same buffer accelerated by sonication and passing through a 21 G needle. To pellet any debris, lysates were centrifuged at 10,000 g for 10 minutes at 4° C., with the supernatant transferred to fresh tubes. Protein concentrations were determined with Bradford assay (Biorad) and lysates were diluted to equal concentration with lysis buffer. Protein lysates were then mixed with Laemmli buffer, vortexed and heated to 95° C. for 5 min. Equal amounts of protein lysates in parallel with protein molecular weight marker (ThermoFisher) were loaded onto pre-cast polyacrylamide gels (Nupage 10 or 12% Bis Tris gel, Novex, Invitrogen) and separated by electrophoresis at 200V for 1 hour. Proteins were transferred onto polyvinylidene difluoride (PVDF) membrane (Invitrogen) using an electrophoretic transfer cell (Mini Trans-Blot, Bio-Rad) in ice-cold transfer buffer (48 mM Tris base, […], 0.1% SDS, 20% methanol (v/v)) at 300 mA for 2 hours. Membranes were blocked in 1× skimmed milk (ThermoFisher) for 1 hour at room temperature, followed by overnight incubation with primary antibody diluted in blocking buffer at 4° C. Next day membranes were washed, followed by 60 minutes incubation in the corresponding horseradish peroxidase (HRP)-conjugated secondary antibody diluted 1:2000-10000 in blocking buffer (all Abcam). Blots were developed using enhanced chemiluminescence (ECL) reagents (normal, Prime & Select) and digital images were acquired using an imaging system (Azure Biosystems). Membranes were usually stripped of antibodies and reprobed with an antibody targeting a protein serving as loading control (α-actinin for hearts & β-actin for all others). For this procedure, membranes were placed in Guanidine-HCl-based stripping solution (6M Guanidine-HCl, 0.2% Nonidet P-40, 0.1M β-mercaptoethanol, 20 mM Tris-HCl, pH 7.5 and 100 mM 2-mercaptoethanol) and incubated for 10 minutes at room temperature with gentle agitation, followed by extensive washing and re-blocking.^5
C2C12 (ATCC® CRL-1772™) myoblasts maintained in DMEM supplemented with L-glutamine (2 mM), penicillin/streptomycin (1%) and 5% fetal bovine serum (FBS) were seeded either at a density of 5×10^4 cells (<50%) per well in 24-well plates or 10^4 cells in 4-well chamber slides. Cells were with L-phenylalanine (1-10 mM)+BH4 (10 μM) and incubation with increasing concentrations of N-acetylcysteine (0.5, 2.5, 5 mM) vs. vehicle overnight as indicated. Cells were analysed for oxidative stress with MitoSOX™ (mitochondrial superoxide; 5 μM, ThermoFisher Scientific), CellROX™ (cytosolic superoxide; 5 μM, ThermoFisher Scientific), gene or protein expression, or various metabolites (see below).

AML-12 hepatocytes = assay: AML-12 hepatocytes: p21, Pah immunoblot and tyrosine production; format: cell-based
Protocol: as §1
AML12 cells (ATCC® CRL-2254™) were maintained in DMEM/F-12 (1:1) culture media supplemented with 10% FBS, 10 μg/ml insulin, 5.5 μg/ml transferrin, 5 ng/ml selenium, 40 ng/ml dexamethasone and 1% penicillin/streptomycin. Cells were sub-cultivated from subconfluent flasks with a ratio from 1:4 to 1:8. For WB analysis, cells were plated on 6-well plates and harvested at 80-90% of confluence. AML12 cells were transfected with indicated siRNA (Table 2) at 80% confluence using Lipofectamine RNAiMAX Transfection Reagent (ThermoFischer Scientific 13778030) following the manufacturer's instructions. Transfection efficiency was constantly checked using BLOCK-IT Alexa Fluor Red Fluorescent Control (ThermoFischer Scientific 14750100).
Levels of reduced glutathione (GSH; ThermoFisher), phenylalanine (BioVision) and tyrosine (BioVision) were determined from cells or plasma, with respective agents/kits following the manufacturer's recommendations. Specifically, GSH levels were estimated with the aid of ThiolTracker™ Violet fluorescent probe (ThermoFisher). Plasma and liver phenylalanine levels were determined using an enzyme-coupled, fluorometric method (BioVision). Briefly, samples were deproteinized via trichloroacetate precipitation, neutralised, tyrosinase-treated (to remove tyrosine that may interfere) and diluted to fit in the standard curve. Fluorescence reading took place at 587 nm after excitation at 535 nm. Levels of tyrosine in cells or conditioned media were determined after deproteinization using 10 kDa cut-off columns with an enzyme-coupled, colorimetric method with reading at 491 nm (BioVision).

Compound	PA-dependent senescence (p21 protein, EdU incorporation) (C2C12 myoblasts; PA 5 mM + BH4 10 μM, FIG. 1c-d)	Pah levels under Nutlin3a-induced senescence (AML-12 hepatocytes; Nutlin3a plus co-treatment, FIG. 4o, 4r)	tyrosine production / levels under Nutlin3a-induced senescence (AML-12 hepatocytes; Nutlin3a plus co-treatment, FIG. 4p, 4q)	other markers of senescence (Cdkn2a=p16 and phospho-p53=p-p53) (C2C12 myoblasts; PA 5 mM vs. vehicle, FIG. 1a)	cyclin-dependent kinase 1a (Cdkn1a=p21) protein (C2C12 myoblasts; PA 5 mM vs. vehicle, FIG. 1a-b)	EdU incorporation (C2C12 myoblasts; PA treatment, FIG. 1d)	p21 protein (AML-12 hepatocytes; increasing concentrations of PA (0-10 mM), FIG. 4n)
CC(O)C(O)C1CNc2nc(N)[nH]c(=O)c2N1 (stereo not shown) [BH4, 2-amino-6-(1,2-dihydroxypropyl)-5,6,7,8-tetrahydro-3H-pteridin-4-one]	antagonised	derepressed	derepressed				
N[C@@H](Cc1ccccc1)C(=O)O [PA, (S)-2-Amino-3-phenylpropanoic acid]				remained unaltered	selectively induced	suppressed	dose-dependent induction
